Measurements reported in ChEMBL document CHEMBL1955768, “Impact of stereochemistry on the biological activity of novel oleandomycin derivatives” (Bioorg Med Chem, 2012).
≈ marks a conversion by molar mass, not a printed value. Calls of active or inactive are those of the source. No cut-off for these calls is given here.

Experiments:
Staphylococcus aureus = assay: Antibacterial activity against Staphylococcus aureus ATCC 13709 by broth microdilution method; assay type: functional
Streptococcus pneumoniae = assay: Antibacterial activity against Streptococcus pneumoniae ATCC 49619 by broth microdilution method; assay type: functional
Streptococcus pyogenes = assay: Antibacterial activity against Streptococcus pyogenes ATCC 700294 by broth microdilution method; assay type: functional; settings: M1 GAS
Moraxella catarrhalis = assay: Antibacterial activity against Moraxella catarrhalis ATCC 23246 by broth microdilution method; assay type: functional
Haemophilus influenzae = assay: Antibacterial activity against Haemophilus influenzae ATCC 49247 by broth microdilution method; assay type: functional
Splenocyte = assay: Inhibition of LPS-induced IL-6 production in mouse splenocytes at 50 uM after 2 hrs preincubation by ELISA; assay type: functional
THP-1 = assay: Cytotoxicity against human THP1 cells at 100 uM after 24 hrs by MTS assay; assay type: cell-based; settings: thp-1, 24 h
Mus musculus = assay: Antiinflammatory activity against LPS-induced lung neutrophilia in BALB/cJ mouse model assessed as reduction in neutrophil numbers in bronchoalveolar lavage fluid at 100 mg/kg, ip treated 2 hrs before LPS challenge measured after 24 hrs by hematological analyzer; assay type: functional, organism-based; parameters: dose 100 mg/kg

SMILES | MIC (Staphylococcus aureus) | MIC (Streptococcus pneumoniae) | MIC (Streptococcus pyogenes) | MIC (Moraxella catarrhalis) | MIC (Haemophilus influenzae) | inhibition at 50 µM (Splenocyte) | Activity (THP-1) | Activity (Mus musculus)
C=C1C[C@H](C)[C@H](O[C@@H]2O[C@H](C)C[C@H](N(C)C)[C@H]2O)[C@@H](C)[C@H](O[C@H]2C[C@H](OC)[C@@H](O)[C@H](C)O2)[C@@H](C)C(=O)O[C@H](C)[C@H](C)[C@H](O)[C@@H](C)[C@H]1O | > 64 µg/mL | > 64 µg/mL | > 64 µg/mL | > 64 µg/mL | > 64 µg/mL | 13% | Non-toxic | –
CO[C@H]1C[C@H](O[C@H]2[C@H](C)[C@@H](O[C@@H]3O[C@H](C)C[C@H](N(C)C)[C@H]3O)[C@@H](C)C[C@@H](C)[C@H](O)[C@H](C)[C@@H](O)[C@@H](C)[C@@H](C)OC(=O)[C@@H]2C)O[C@@H](C)[C@@H]1O | > 64 µg/mL | 4 µg/mL (≈ 5.92 µM) | > 64 µg/mL | > 64 µg/mL | > 64 µg/mL | 61% | Non-toxic | Active
CO[C@H]1C[C@H](O[C@H]2[C@H](C)[C@@H](O[C@@H]3O[C@H](C)C[C@H](N(C)C)[C@H]3O)[C@@H](C)C[C@H](C)C(=O)[C@H](C)[C@@H](O)[C@@H](C)[C@@H](C)OC(=O)[C@@H]2C)O[C@@H](C)[C@@H]1O | > 64 µg/mL | > 64 µg/mL | > 64 µg/mL | > 64 µg/mL | > 64 µg/mL | 42% | Non-toxic | –
CO[C@H]1C[C@H](O[C@H]2[C@H](C)[C@@H](O[C@@H]3O[C@H](C)C[C@H](N(C)C)[C@H]3O)[C@@H](C)C[C@H](C)[C@@H](O)[C@H](C)[C@@H](O)[C@@H](C)[C@@H](C)OC(=O)[C@@H]2C)O[C@@H](C)[C@@H]1O | > 64 µg/mL | > 64 µg/mL | > 64 µg/mL | > 64 µg/mL | > 64 µg/mL | 2% | Non-toxic | Active
CO[C@H]1C[C@H](O[C@H]2[C@H](C)[C@@H](O[C@@H]3O[C@H](C)C[C@H](N(C)C)[C@H]3O)[C@@H](C)C[C@H](C)[C@H](O)[C@H](C)[C@@H](O)[C@@H](C)[C@@H](C)OC(=O)[C@@H]2C)O[C@@H](C)[C@@H]1O | > 64 µg/mL | > 64 µg/mL | > 64 µg/mL | > 64 µg/mL | > 64 µg/mL | 12% | Non-toxic | –
CO[C@H]1C[C@H](O[C@H]2[C@H](C)[C@@H](O[C@@H]3O[C@H](C)C[C@H](N(C)C)[C@H]3O)[C@@H](C)C[C@@H](C)C(=O)[C@H](C)[C@@H](O)[C@@H](C)[C@@H](C)OC(=O)[C@@H]2C)O[C@@H](C)[C@@H]1O | 4 µg/mL (≈ 5.94 µM) | 0.25 µg/mL (≈ 0.371 µM) | 0.5 µg/mL (≈ 0.742 µM) | 2 µg/mL (≈ 2.97 µM) | > 64 µg/mL | 69% | Non-toxic | –

Further lines, with some results ahead:

MIC (Staphylococcus aureus) | MIC (Streptococcus pneumoniae) | MIC (Streptococcus pyogenes) | MIC (Moraxella catarrhalis) | MIC (Haemophilus influenzae) | SMILES | inhibition at 50 µM (Splenocyte) | Activity (THP-1) | Activity (Mus musculus)
> 64 µg/mL | > 64 µg/mL | > 64 µg/mL | > 64 µg/mL | > 64 µg/mL | CO[C@H]1C[C@H](O[C@H]2[C@H](C)[C@@H](O[C@@H]3O[C@H](C)C[C@H](N(C)C)[C@H]3O)[C@@H](C)C[C@@H](C)[C@@H](O)[C@H](C)[C@@H](O)[C@@H](C)[C@@H](C)OC(=O)[C@@H]2C)O[C@@H](C)[C@@H]1O | 2% | Non-toxic | –
> 64 µg/mL | > 64 µg/mL | > 64 µg/mL | > 64 µg/mL | > 64 µg/mL | C=C1C[C@H](C)[C@H](O[C@@H]2O[C@H](C)C[C@H](N(C)C)[C@H]2O)[C@@H](C)[C@H](O[C@H]2C[C@H](OC)[C@@H](O)[C@H](C)O2)[C@@H](C)C(=O)O[C@H](C)[C@H](C)[C@H](O)[C@@H](C)[C@@H]1O | 13% | Non-toxic | –
